Among the data in BindingDB's records for doi:10.1074/jbc.M114.564278 (University of Michigan, 2014) are Kd values, retold here.

The target in assay [1] is T1, Acyl-[acyl-carrier-protein]--UDP-N-acetylglucosamine O-acyltransferase (Escherichia coli (strain K12), UniProt P0A722).
T1 sequence (P0A722 whole entry): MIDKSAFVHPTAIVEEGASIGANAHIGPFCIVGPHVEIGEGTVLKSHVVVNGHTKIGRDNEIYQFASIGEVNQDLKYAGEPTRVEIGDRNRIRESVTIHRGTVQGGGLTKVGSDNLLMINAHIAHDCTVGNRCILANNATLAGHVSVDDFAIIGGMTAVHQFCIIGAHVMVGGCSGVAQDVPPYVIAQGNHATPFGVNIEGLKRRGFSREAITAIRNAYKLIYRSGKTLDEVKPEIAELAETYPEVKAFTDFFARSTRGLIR
The experiment in a line: Fluorescence Polarization Assay. Particulars: pH 8. As for the experimental part: (§1) The fluorescence polarization assay was performed as previously described [Jenkins et al., ACS Chem. Biol., 7:1170-1177]. In 384-well black Costar plates, LpxA or His6-LpxD were serially diluted while holding the fluorescent peptide at 20 nM in a final volume of 50 μl in 20mM HEPES pH 8.0 (0.01% DMSO). The wells were gently mixed and incubated at 30 °C in the dark for 15 min. Polarization was measured on a SpectraMax M5 plate reader in triplicate with readings taken at λex = 485 nm and λem = 525 nm.
Background: Fluorescence polarisation rises when a labelled molecule tumbles more slowly, as on binding a larger partner.

For assay [2], the target named is T2, UDP-3-O-(3-hydroxymyristoyl)glucosamine N-acyltransferase (Escherichia coli (strain K12), UniProt P21645).
T2 sequence (P21645 whole entry): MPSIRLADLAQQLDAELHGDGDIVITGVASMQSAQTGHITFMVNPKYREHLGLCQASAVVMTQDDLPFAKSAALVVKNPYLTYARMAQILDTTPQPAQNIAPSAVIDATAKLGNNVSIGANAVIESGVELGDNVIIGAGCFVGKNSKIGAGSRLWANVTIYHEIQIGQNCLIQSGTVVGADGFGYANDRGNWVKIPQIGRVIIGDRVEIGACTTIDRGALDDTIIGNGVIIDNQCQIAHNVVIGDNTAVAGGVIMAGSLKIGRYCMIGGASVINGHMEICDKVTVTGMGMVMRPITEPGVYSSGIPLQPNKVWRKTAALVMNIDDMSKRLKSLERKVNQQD
The experiment in a line: Fluorescence Polarization Assay. Conditions: pH 8. As for the experimental part: as §1

Where a SMILES comes first, the peptide text is derived from it. [ ]: non-standard residue; d: D form. The star is where a group is joined. X1 = O=C(O)c1cc(NC(=S)*)ccc1-c1c2ccc(=O)cc-2oc2cc(O)ccc12; Ala(3-Me-diazirin-3-yl) = CC1(C[C@H](N)C(=O)O)N=N1; βAla = NCCC(=O)O

What is called Kd is the constant that tells how readily two partners part at equilibrium. The low end stands for higher affinity, the high end for lower affinity. For `CC[C@H](C)[C@H](NC(=O)[C@H](CC(=O)O)NC(=O)[C@H](Cc1c[nH]c2ccccc12)NC(=O)[C@H](CCCCN)NC(=O)[C@@H]1CCCN1C(=O)[C@H](CC(C)C)NC(=O)[C@H](CCSC)NC(=O)[C@H](Cc1ccc(O)cc1)NC(=O)[C@H](CC1(C)N=N1)NC(=O)[C@H](CC(N)=O)NC(=O)[C@@H](NC(=O)CCNC(=S)Nc1ccc(-c2c3ccc(=O)cc-3oc3cc(O)ccc23)c(C(=O)O)c1)[C@@H](C)O)C(=O)N1CCC[C@H]1C(N)=O` [FITC-(βa)TN(L-photoleucine)YMLPKWDIP-CONH2] ({X1-βAla}-TN[Ala(3-Me-diazirin-3-yl)]YMLPKWDIP-NH2), the figures for the Kd in assay [1] and in assay [2] were 50 µM and 2100 nM, respectively.
On the same counts, the results for `CC[C@H](C)[C@H](NC(=O)[C@H](CC(=O)O)NC(=O)[C@H](Cc1c[nH]c2ccccc12)NC(=O)[C@H](CCCCN)NC(=O)[C@@H]1CCCN1C(=O)[C@H](CC1(C)N=N1)NC(=O)[C@H](CCSC)NC(=O)[C@H](Cc1ccc(O)cc1)NC(=O)[C@H](CC(C)C)NC(=O)[C@H](CC(N)=O)NC(=O)[C@@H](NC(=O)CCNC(=S)Nc1ccc(-c2c3ccc(=O)cc-3oc3cc(O)ccc23)c(C(=O)O)c1)[C@@H](C)O)C(=O)N1CCC[C@H]1C(N)=O` [FITC-(βa)TNLYM(L-photoleucine)PKWDIP-CONH2] ({X1-βAla}-TNLYM[Ala(3-Me-diazirin-3-yl)]PKWDIP-NH2) are 32 µM and 1100 nM.
On the same counts, the results for `CSCC[C@H](NC(=O)[C@H](Cc1ccc(O)cc1)NC(=O)[C@H](CC(C)C)NC(=O)[C@H](CC(N)=O)NC(=O)[C@@H](NC(=O)CCNC(=S)Nc1ccc(-c2c3ccc(=O)cc-3oc3cc(O)ccc23)c(C(=O)O)c1)[C@@H](C)O)C(=O)N[C@@H](CC(C)C)C(N)=O` [FITC-(βa)TNLYML-CONH2] ({X1-βAla}-TNLYML-NH2) are 12 µM and 22000 nM.
The matching figures for `CSCC[C@H](NC(=O)[C@H](Cc1ccc(O)cc1)NC(=O)[C@H](CC(C)C)NC(=O)[C@H](CC(N)=O)NC(=O)[C@@H](NC(=O)CCNC(=S)Nc1ccc(-c2c3ccc(=O)cc-3oc3cc(O)ccc23)c(C(=O)O)c1)[C@@H](C)O)C(=O)N[C@@H](CC(C)C)C(=O)O` [FITC-(βa)TNLYML-COOH] ({X1-βAla}-TNLYML-OH): 4.4 µM and 36000 nM.
On to `CSCC[C@H](NC(=O)[C@H](Cc1ccc(O)cc1)NC(=O)[C@H](CC(C)C)NC(=O)[C@H](CC(N)=O)NC(=O)[C@@H](NC(=O)CCNC(=S)Nc1ccc(-c2c3ccc(=O)cc-3oc3cc(O)ccc23)c(C(=O)O)c1)[C@@H](C)O)C(=O)N[C@@H](CC(C)C)C(=O)N1CCC[C@H]1C(=O)N[C@@H](CCCCN)C(=O)N[C@@H](Cc1c[nH]c2ccccc12)C(=O)N[C@@H](CC(=O)O)C(=O)N[C@@H](CC1(C)N=N1)C(=O)N1CCC[C@H]1C(N)=O` [FITC-(βa)TNLYMLPKWD(L-photoleucine)P-CONH2] ({X1-βAla}-TNLYMLPKWD[Ala(3-Me-diazirin-3-yl)]P-NH2), for which the Kd is 22 µM in assay [1] and 800 nM in assay [2].
On the same counts, the results for `CC[C@H](C)[C@H](NC(=O)[C@H](CC(=O)O)NC(=O)[C@H](Cc1c[nH]c2ccccc12)NC(=O)[C@H](CCCCN)NC(=O)[C@@H]1CCCN1C(=O)[C@H](CC(C)C)NC(=O)[C@H](CCSC)NC(=O)[C@H](Cc1ccc(O)cc1)NC(=O)[C@H](CC(C)C)NC(=O)[C@H](CC(N)=O)NC(=O)[C@@H](NC(=O)CCNC(=S)Nc1ccc(-c2c3ccc(=O)cc-3oc3cc(O)ccc23)c(C(=O)O)c1)[C@@H](C)O)C(=O)N1CCC[C@H]1C(N)=O` [FITC-(βa)TNLYMLPKWDIP-CONH2] ({X1-βAla}-TNLYMLPKWDIP-NH2) are 17 µM and 600 nM.
H-TNLYML-NH2 [RJPXD33Δ6] gave an equilibrium dissociation constant (Kd) in assay [1] of 23 µM. This counts as double-digit micromolar.
Compound H-TNLYML-OH [RJPXD33Δ6-COOH] displayed a dissociation constant Kd in assay [1] of 2.1 µM. This Kd is about 11-fold lower than that of the compound before.
